The RepoRT retention time repository

Assay: A: acetonitrile + 0.1% formic acid + 10 mM ammonium formate; B: 5% water + 95% acetonitrile + 0.1% formic acid + 10 mM ammonium formate; gradient (min/%B) 0/10 2/10 22/100 27/100 27.1/10
Conditions: stereoisomer not certain

Row | SMILES | LC retention time [min]
1 | NC(CCCC(N)C(=O)O)C(=O)O (stereo unspecified) [2,6-Diaminopimelic Acid] | 8.06
2 | N[C@@H](Cc1c[nH]c2ccc(O)cc12)C(=O)O [L-5-Hydroxytryptophan] | 5.36
3 | CC(C)C[C@H](N)C(=O)O [L-Leucine] | 5.01
4 | NCCc1cnc[nH]1 [Histamine] | 7.92
5 | C=CC1CN2CCC1CC2C(O)c1ccnc2ccccc12 (stereo unspecified) [Cinchonidine] | 2.2
6 | O=C(c1ccccc1)c1ccc2n1CCC2C(=O)O (stereo unspecified) [Ketorolac] | 0.567
7 | NC(N)=NCCCC(=O)O [4-Guanidinobutyric acid] | 5.73
8 | CC(=O)C1CCC2C3CCC4=CC(=O)CCC4(C)C3CCC12C (stereo unspecified) [Progesterone] | 0.425
9 | CC(=O)N1CCC[C@H]1C(=O)O [N-Acetyl-L-Proline] | 4.98
10 | CC(CCC(=O)NCC(=O)O)C1CCC2C3C(O)CC4CC(O)CCC4(C)C3CC(O)C12C (stereo unspecified) [Glycocholic acid] | 4.17
11 | CC(=O)Nc1nnc(S(N)(=O)=O)s1 [Acetazolamide] | 0.529
12 | O=C(O)c1ccccn1 [2-Picolinic acid] | 3.08
13 | CC(=O)NC1C(O)CC(O)(C(=O)O)OC1C(O)C(O)CO (stereo unspecified) [N-Acetylneuraminic acid] | 6.84
14 | O=c1c(-c2ccc(O)cc2)coc2cc(O)ccc12 [Daidzein] | 0.473
15 | NC(=O)NC(CC(=O)O)C(=O)O (stereo unspecified) [Ureidosuccinic acid] | 5.96
16 | CCOC(=O)C1=CC(OC(CC)CC)C(NC(C)=O)C(N)C1 (stereo unspecified) [Oseltamivir] | 2.47
